Publication PMC5575539 (Journal of Clinical Pharmacology, 2017)
Like-named read-outs stand apart in the source and are kept apart here.

How the values were obtained:
[1] = system: subjects with HCC Child‐Pugh class A; settings: 12 mg QD; independent radiologic review per modified RECIST; cited from earlier work
[2] = type: in vivo, human; settings: ROC curve; TEAEs during cycle 1; subjects with HCC
[3] = 4‐week cycles, continuous schedule; subjects with Child‐Pugh class A; cited from earlier work
[4] = Population pharmacokinetic analysis of lenvatinib; type: in vivo, human; settings: for Additional (ng/mL) (TAD ≤ 2 hours) / Proportional (%CV) (Clinical pharmacology studies) / Proportional (%CV) (Patient studies) / Proportional (%CV) (TAD ≤ 2 hours): residual error
[5] = type: in vivo, human; settings: for AUC: human, plasma, oral, 12 mg, Median AUC based on the starting dose, steady state, model‐derived
[6] = final model, bootstrap median (2.5‐97.5 percentile)
[7] = final model, population mean (%RSE)
[8] = base model, population mean (%RSE)

For `COc1cc2nccc(Oc3ccc(NC(=O)NC4CC4)c(Cl)c3)c2cc1C(N)=O` [lenvatinib], the “Median time to progression” value [1] is listed as 7.4 months, the Objective response rate [1] is listed as 37% and the “Best cutoff value of lenvatinib AUC to predict high‐risk group for early drug withdrawal or dose reduction” value [2] is listed as 2430 ng·h/mL. The Maximum tolerated dose [3] was 12 mg QD, the Ka ([4]; base model, population mean (%RSE), absorption rate) was 1.02 (6.06) L/h and the D1 ([4]; base model, population mean (%RSE), duration of 0‐order absorption) was 1.05 (5.45) hours. For the same compound, the “F1 (capsule vs tablet formulation)” value ([4]; base model, population mean (%RSE), relative bioavailability) was 0.832 (0.982), the “Effect of the HCC population (HCC vs other cancer type) on CL/F” value ([4]; covariate analysis, model including body weight and alkaline phosphatase effects) was “not a statistically significant effect” and the “CL/F interindividual variability explained by body weight” value ([4]; final PK model) was 10.5%. The “CL/F interindividual variability explained by other covariates” value ([4]; final PK model) was 14.3%, the “Decrease of CL/F with CYP3A4 inhibitors” value ([4]; final PK model) was 7.8% and the “Decrease of CL/F with alkaline phosphatase above the upper limit of normal” value ([4]; final PK model) was 14.8%. The “Higher CL/F in healthy subjects than in patients with cancer” value ([4]; final PK model) was 19%, the “Increase of CL/F with concomitant administration of CYP3A4 inducers” value ([4]; final PK model) was 30% and the “Decrease of CL/F with alkaline phosphatase above the upper limit of normal” value ([4]; final PK model, listed as Lenvatinib) was 15%. For the same compound, the “ALP (> ULN vs ≤ ULN) on CL/F [ΘALP]” value [4, 6] was 0.855 (0.807‐0.910), the “Body weight on V1/F, V2/F, and V3/F [ΘWGT2]” value [4, 6] was 1.08 (0.876‐1.28) and the D1 [4, 6] was 1.06 (0.987‐1.14) hours. The “F1 (capsule vs tablet formulation)” value [4, 6] was 0.867 (0.815‐0.908), the Ka [4, 6] was 1.04 (0.933‐1.13) L/h and the “Population (healthy vs subjects) on CL/F [ΘTM]” value [4, 6] was 1.19 (1.11‐1.27). The “ALP (> ULN vs ≤ ULN) on CL/F [ΘALP]” value [4, 7] was 0.852 (1.24), the “Population (healthy vs subjects) on CL/F [ΘTM]” value [4, 7] was 1.19 (3.26) and the Ka ([4]; final model, population mean (%RSE), absorption rate) was 1.04 (6.80) L/h. For the same compound, the D1 ([4]; final model, population mean (%RSE), duration of 0‐order absorption) was 1.06 (5.77) hours, the “Body weight on V1/F, V2/F, and V3/F [ΘWGT2]” value ([4]; final model, population mean (%RSE), power exponent on WGT/75) was 1.08 (5.42) and the “F1 (capsule vs tablet formulation)” value ([4]; final model, population mean (%RSE), relative bioavailability) was 0.867 (1.00). The “Differences in CL/F between HCC Child‐Pugh class A and B groups” value ([4]; population PK analysis) was “No differences in CL/F”, the “Additional (ng/mL) (TAD ≤ 2 hours)” value [4, 8] was 7.29 (16.2) ng/mL and the “Proportional (%CV) (Clinical pharmacology studies)” value [4, 8] was 18.4 (0.888) %CV. The “Proportional (%CV) (Patient studies)” value [4, 8] was 30.7 (2.03) %CV, the “Proportional (%CV) (TAD ≤ 2 hours)” value [4, 8] was 44.9 (3.75) %CV and the “Additional (ng/mL) (TAD ≤ 2 hours)” value [4, 6] was 7.50 (4.62‐9.85) ng/mL. For the same compound, the “Proportional (%CV) (Clinical pharmacology studies)” value [4, 6] was 17.1 (15.5‐18.8) %CV, the “Proportional (%CV) (Patient studies)” value [4, 6] was 30.1 (27.7‐32.2) %CV and the “Proportional (%CV) (TAD ≤ 2 hours)” value [4, 6] was 44.8 (40.7‐48.8) %CV. For the same compound, the “Additional (ng/mL) (TAD ≤ 2 hours)” value [4, 7] was 7.35 (16.3) ng/mL, the “Proportional (%CV) (Clinical pharmacology studies)” value [4, 7] was 17.3 (0.883) %CV and the “Proportional (%CV) (Patient studies)” value [4, 7] was 30.2 (2.00) %CV. The “Proportional (%CV) (TAD ≤ 2 hours)” value [4, 7] was 44.8 (3.87) %CV, the “Subjects who experienced TEAEs leading to dose reduction or discontinuation during cycle 1” value ([5]; 21 of 45 subjects in the exposure–response population, 12 mg QD, HCC) was 46.7% and the “Relationship between lenvatinib exposure and response (time to progression)” value ([5]; Kaplan‐Meier, tertiles of AUC based on starting dose of 12 mg, independent reviewer assessments) was “No relationship”. It also gave an AUC ([5]; subjects with early dose withdrawal or reduction) of 2950 ng·h/mL and an AUC ([5]; subjects without early dose modification) of 2050 ng·h/mL.
